The nature of data set [1]: Proteolytic stability in trypsin/chymotrypsin solution, monitored by RP-HPLC. It counts as in vitro ADME. As for the experimental part:
FIG. 4E. […] All peptides were treated with trypsin/chymotrypsin (0.05 μg mL-1 enzyme concentration). RP-HPLC was used to monitor the progress of degradation. All peptides have a half-life about 3 hours. After 3 to 4 hours, some degradation product of CSP1-cyc-E1A(Dap6E10) start to precipitate out, resulting in the plateau in the curve.
(§1) FIGS. 14A-14D. Pharmacological properties of dnCSPs. (FIG. 14A) CSPs were treated with trypsin/chymotrypsin and their degradation monitored by HPLC. (FIG. 14B) CD1 mice (3/cohort, males & females) were intratracheally instilled 400 μg of native or dnCSPs. Mice were bronchial alveolar lavaged (BAL) at indicated times, and cell free BAL fluid (BALF) were analyzed by HPLC. […] (FIGS. 14C-14D) CD1 mice (5/cohorts, males & females) were intratracheally inoculated with MTD doses of native and dnCSPs (200 μg-20 mg/kg). […] Lung sections (FIGS. 14C-14D) and other organs were H&E stained. b=bronchioles; v=vessels.
The proteolytic stability of CSP1-E1A-cyc(Dap6E10) in Trypsin and Chymotrypsin solution was tested and the half-life measured. […] To test that, CSP1-E1A-des-K16K17-cyc(Dap6E10) was manually synthesized and evaluated its activity.
Pharmacological evaluation of lead cyclic dnCSPs. Before moving the most promising dnCSPs into mouse models, their pharmacological properties will be evaluated. As these are peptide-based drugs, first assessed are their metabolic stability. These assays will include prolonged incubation in physiologically-relevant buffers with varying pH values, stability towards degradation by trypsin and chymotrypsin, and stability in mouse lungs, plasma and serum to simulate in vivo proteolytic environments. Degradation of dnCSPs will be quantified using HPLC. […] The MTD will be defined as the maximum dose that causes a 15% loss of initial weight. […] Systemic toxicity will be assessed by performing blood chemistry and complete blood count (CBC) with differential. Major organs (e.g., liver, kidney, heart, lung, etc.) and sternum (to test genotoxicity) will be collected for histopathological and toxicological analysis. […]

The nature of data set [2]: Stability in mouse lungs (BAL fluid analysed by HPLC after intratracheal instillation). It counts as in vivo, CD1 mice. The settings on record: both sexes, CD1, cell-free bronchoalveolar lavage fluid (BALF), inhaled or intranasal, 400 ug, 400 μg intratracheally, FIG. 14B. On the procedure:
as §1

The target in another data set is ComD2 receptor (Streptococcus pneumoniae serotype 4, UniProt A0A0H2US84). Nature of the data set: cell-based. It counts as cell-based. The text has this:
Biological evaluation of cyclic dnCSPs. […] All assays will be performed in triplicates and independently three times. Serial dilutions of dnCSPs will be conducted to determine the EC50 and IC50 values of promising dnCSPs through initial screening. Data from reporter assays will be analyzed using the GraphPad Prism software. The lead dnCSPs will be assessed for their therapeutic potential using multiple in vitro assays, including attenuation of ComX-induction (reporter systems), genetic transformation, allolysis (zymogram assays), and release of PLY (hemolysis & Western blots). Lastly, the pneumococcal competence system regulates biofilm formation, which is important for the pathogenesis of […]. The ability of the dnCSPs to inhibit biofilm formation will be evaluated after 24 hr of growth on 1% BSA coated coverslips placed in flat-bottom polystyrene tissue culture plates by staining with FilmTracer LIVE/DEAD Biofilm viability kit (Invitrogen, L10316), and visualized using a confocal microscope and Z-stacked to construct 3D-images.

The target in another data set is ComD1 receptor (Streptococcus pneumoniae serotype 2, UniProt A0A0H2ZM50). As to the kind of experiment: cell-based. It counts as cell-based. The text has this: Biological evaluation of cyclic dnCSPs. The cyclic dnCSPs will be assessed for inhibition of competence induction using the β-gal, lux (FIG. 11) or luc (FIG. 15) reporter systems we have optimized for the analysis of a large number of signal variants in 96-well plates. All assays will be performed in triplicates and independently three times. Serial dilutions of dnCSPs will be conducted to determine the EC50 and IC50 values of promising dnCSPs through initial screening. Data from reporter assays will be analyzed using the GraphPad Prism software. The lead dnCSPs will be assessed for their therapeutic potential using multiple in vitro assays, including attenuation of ComX-induction (reporter systems), genetic transformation, allolysis (zymogram assays), and release of PLY (hemolysis & Western blots). Lastly, the pneumococcal competence system regulates biofilm formation, which is important for the pathogenesis of […]. The ability of the dnCSPs to inhibit biofilm formation will be evaluated after 24 hr of growth on 1% BSA coated coverslips placed in flat-bottom polystyrene tissue culture plates by staining with FilmTracer LIVE/DEAD Biofilm viability kit (Invitrogen, L10316), and visualized using a confocal microscope and Z-stacked to construct 3D-images.
ComD1 receptor, sequence (A0A0H2ZM50 entry or part of it): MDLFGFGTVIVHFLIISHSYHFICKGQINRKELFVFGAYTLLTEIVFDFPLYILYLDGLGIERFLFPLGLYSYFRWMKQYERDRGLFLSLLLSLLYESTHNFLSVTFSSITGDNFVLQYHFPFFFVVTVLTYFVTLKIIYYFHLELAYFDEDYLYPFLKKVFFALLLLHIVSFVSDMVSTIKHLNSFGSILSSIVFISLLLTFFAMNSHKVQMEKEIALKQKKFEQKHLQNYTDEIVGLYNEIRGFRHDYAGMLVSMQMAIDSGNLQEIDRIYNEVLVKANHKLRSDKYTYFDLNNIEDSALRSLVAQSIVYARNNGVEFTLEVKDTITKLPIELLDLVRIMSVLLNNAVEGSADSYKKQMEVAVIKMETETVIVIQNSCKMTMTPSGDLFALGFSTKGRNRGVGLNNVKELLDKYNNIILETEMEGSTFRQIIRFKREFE

Setting [3] is: in vitro, FIG. 14A, read-out: half-life (converted).

Bridge positions count the residues as written; N and C are the ends. Square brackets hold non-standard residues; d marks the D form. Peptide text beside a SMILES is read from it. Dap = NC[C@H](N)C(=O)O Some results are limits rather than exact numbers.

ComD2 receptor, sequence (A0A0H2US84 entry or part of it): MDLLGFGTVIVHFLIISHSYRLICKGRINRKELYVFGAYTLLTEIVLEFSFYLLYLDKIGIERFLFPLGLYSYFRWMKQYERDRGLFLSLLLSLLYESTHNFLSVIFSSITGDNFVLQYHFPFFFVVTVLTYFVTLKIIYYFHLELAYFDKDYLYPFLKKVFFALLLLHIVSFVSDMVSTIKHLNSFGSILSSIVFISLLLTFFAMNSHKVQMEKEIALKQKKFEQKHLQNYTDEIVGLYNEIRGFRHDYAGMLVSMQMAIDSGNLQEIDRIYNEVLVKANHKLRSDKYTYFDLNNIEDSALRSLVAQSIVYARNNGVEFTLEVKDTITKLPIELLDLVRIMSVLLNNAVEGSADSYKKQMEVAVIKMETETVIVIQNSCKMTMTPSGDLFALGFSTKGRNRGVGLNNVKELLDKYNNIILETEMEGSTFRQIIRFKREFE

A word on the half-life: it is the time in which the quantity being followed falls by half. In the case of `CC[C@H](C)[C@H](NC(=O)[C@H](CCCNC(=N)N)NC(=O)[C@H](CCSC)NC(=O)[C@H](C)N)C(=O)N[C@@H](CO)C(=O)N[C@@H](CCCNC(=N)N)C(=O)N[C@H](C(=O)N[C@H](C(=O)N[C@@H](CC(C)C)C(=O)N[C@H](CC(=O)O)C(=O)N[C@@H](Cc1ccccc1)C(=O)N[C@@H](CC(C)C)C(=O)N[C@@H](Cc1ccccc1)C(=O)N[C@@H](CC(C)C)C(=O)N[C@@H](CCCNC(=N)N)C(=O)N[C@@H](CCCCN)C(=O)N[C@@H](CCCCN)C(=O)O)[C@@H](C)CC)[C@@H](C)CC` [CSP2-E1Ad10, A-M-R-I-S-R-I-I-L-d-F-L-F-L-R-K-K] (H-AMRISRIIL[dD]FLFLRKK-OH; N-terminus and C-terminus assumed), the half-life in data set [1] (setting [3]) and in data set [2] was > 3 h in each case.
A word on the IC50: it is the concentration that inhibits the measured activity by half. In the case of `CC[C@H](C)[C@H](NC(=O)[C@H](Cc1ccccc1)NC(=O)[C@H](CC(=O)O)NC(=O)[C@H](CCCNC(=N)N)NC(=O)[C@H](Cc1ccccc1)NC(=O)[C@H](Cc1ccccc1)NC(=O)[C@H](CCCCN)NC(=O)[C@H](CO)NC(=O)[C@H](CC(C)C)NC(=O)[C@H](CCCNC(=N)N)NC(=O)[C@H](CCSC)NC(=O)[C@H](C)N)C(=O)N[C@@H](CC(C)C)C(=O)N[C@@H](CCC(N)=O)C(=O)N[C@@H](CCCNC(=N)N)C(=O)N[C@@H](CCCCN)C(=O)N[C@@H](CCCCN)C(=O)O` [CSP1-E1A, A-M-R-L-S-K-F-F-R-D-F-I-L-Q-R-K-K], on ComD2 receptor, the concentration for half-maximal inhibition (IC50) was > 10000 nM. Besides, the half-life in data set [1] (setting [3]) and in data set [2] was 1.5 h each time.
As for `CC[C@H](C)[C@H](NC(=O)[C@H](Cc1ccccc1)NC(=O)[C@@H]1CCC(=O)NC[C@H](NC(=O)[C@H](CO)NC(=O)[C@H](CC(C)C)NC(=O)[C@H](CCCNC(=N)N)NC(=O)[C@H](CCSC)NC(=O)[C@H](C)N)C(=O)N[C@@H](Cc2ccccc2)C(=O)N[C@@H](Cc2ccccc2)C(=O)N[C@@H](CCCNC(=N)N)C(=O)N1)C(=O)N[C@@H](CC(C)C)C(=O)N[C@@H](CCC(N)=O)C(=O)N[C@@H](CCCNC(=N)N)C(=O)N[C@@H](CCCCN)C(=O)N[C@@H](CCCCN)C(=O)O` [CSP1-E1A-cyc(Dap6E10), A-M-R-L-S-(Dap-F-F-R-E)-F-I-L-Q-R-K-K] (H-AMRLS[Dap]FFREFILQRKK-OH; lactam 6-10; N-terminus and C-terminus assumed), the concentration for half-maximal inhibition (IC50) against ComD2 receptor amounted to 182 nM; on ComD1 receptor, 75.8 nM. Further, in data set [1] (counting active degradation product CSP1-E1A-des-K16K17-cyc(Dap6E10), read-out: effective half-life), the half-life was > 4 h.

These data come from patent US12528838B2, “Cyclic dominant negative competence stimulating peptide analogs and methods of treating Streptococcus pneumoniae infections” (priority 2019, dated 2026).
